From ChEMBL document CHEMBL1145583, “2,5-Diaminopyrimidines and 3,5-disubstituted azapurines as inhibitors of glycogen synthase kinase-3 (GSK-3)” (Bioorg Med Chem Lett, 2008)

What was measured:
[1] = target: T1, Glycogen synthase kinase-3 alpha (Homo sapiens, UniProt P49840); assay: Inhibition of GSK3-alpha at 10 uM
Target sequence in this assay (P49840 2-483 limits assumed): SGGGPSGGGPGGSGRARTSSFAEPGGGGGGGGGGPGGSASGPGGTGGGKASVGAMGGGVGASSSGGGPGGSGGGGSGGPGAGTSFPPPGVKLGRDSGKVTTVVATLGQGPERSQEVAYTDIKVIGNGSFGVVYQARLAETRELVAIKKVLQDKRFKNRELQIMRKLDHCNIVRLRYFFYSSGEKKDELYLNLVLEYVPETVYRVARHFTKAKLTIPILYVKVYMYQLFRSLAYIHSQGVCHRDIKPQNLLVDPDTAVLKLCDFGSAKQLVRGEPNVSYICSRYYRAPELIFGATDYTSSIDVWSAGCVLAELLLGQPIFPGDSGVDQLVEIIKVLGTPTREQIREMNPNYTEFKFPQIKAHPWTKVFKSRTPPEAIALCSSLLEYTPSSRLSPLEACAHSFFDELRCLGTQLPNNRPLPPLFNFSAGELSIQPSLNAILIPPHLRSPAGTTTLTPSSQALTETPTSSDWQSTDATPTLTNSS

[2] = target: T2, Glycogen synthase kinase-3 beta (Homo sapiens, UniProt P49841); assay: Inhibition of GSK3-beta
Target sequence in this assay (P49841 whole entry): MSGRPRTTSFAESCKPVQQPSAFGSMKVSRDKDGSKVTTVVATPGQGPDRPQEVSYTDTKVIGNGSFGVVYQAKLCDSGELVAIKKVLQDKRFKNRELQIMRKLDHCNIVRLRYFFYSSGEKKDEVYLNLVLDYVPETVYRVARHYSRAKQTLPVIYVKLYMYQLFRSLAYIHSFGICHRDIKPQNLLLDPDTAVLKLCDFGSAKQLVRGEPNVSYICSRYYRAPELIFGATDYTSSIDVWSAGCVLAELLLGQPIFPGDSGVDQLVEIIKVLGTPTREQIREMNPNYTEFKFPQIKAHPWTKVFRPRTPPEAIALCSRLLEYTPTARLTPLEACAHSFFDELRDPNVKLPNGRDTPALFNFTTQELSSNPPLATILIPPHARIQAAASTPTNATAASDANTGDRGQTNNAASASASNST

[3] = target: T2, Glycogen synthase kinase-3 beta; assay: Inhibition of GSK3-beta at 10 uM
Target sequence in this assay (P49841 whole entry, looked up): as the sequence (P49841 whole entry) above

[4] = target: T1, Glycogen synthase kinase-3 alpha; assay: Inhibition of GSK3alpha
Target sequence in this assay (P49840 whole entry): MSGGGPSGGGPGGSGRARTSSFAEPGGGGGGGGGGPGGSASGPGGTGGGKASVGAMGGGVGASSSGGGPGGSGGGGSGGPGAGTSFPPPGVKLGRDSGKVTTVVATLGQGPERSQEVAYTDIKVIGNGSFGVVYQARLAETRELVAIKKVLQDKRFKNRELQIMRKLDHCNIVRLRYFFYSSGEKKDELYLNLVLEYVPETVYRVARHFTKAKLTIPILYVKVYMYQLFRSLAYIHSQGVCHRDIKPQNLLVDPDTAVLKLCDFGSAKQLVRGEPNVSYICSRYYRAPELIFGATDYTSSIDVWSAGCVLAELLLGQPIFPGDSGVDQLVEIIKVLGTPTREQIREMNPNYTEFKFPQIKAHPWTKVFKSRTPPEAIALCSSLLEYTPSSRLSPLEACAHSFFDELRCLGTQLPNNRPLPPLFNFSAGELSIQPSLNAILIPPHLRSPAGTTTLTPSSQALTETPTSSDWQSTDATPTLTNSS

[5] = target: T3, Aurora kinase A (Homo sapiens) (UniProt O14965); assay: Inhibition of Aurora A at 10 uM
T3 sequence (whole entry): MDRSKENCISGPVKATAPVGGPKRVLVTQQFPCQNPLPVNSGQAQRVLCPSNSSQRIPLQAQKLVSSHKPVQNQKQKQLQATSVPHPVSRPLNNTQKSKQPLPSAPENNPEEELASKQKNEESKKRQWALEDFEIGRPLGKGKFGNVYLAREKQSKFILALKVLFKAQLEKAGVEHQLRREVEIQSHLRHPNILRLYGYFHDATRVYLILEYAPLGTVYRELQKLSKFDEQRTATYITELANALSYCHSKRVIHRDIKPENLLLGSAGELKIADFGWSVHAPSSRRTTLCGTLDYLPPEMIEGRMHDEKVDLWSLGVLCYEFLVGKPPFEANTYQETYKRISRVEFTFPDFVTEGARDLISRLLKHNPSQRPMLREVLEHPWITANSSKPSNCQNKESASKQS

Aurora kinase A = target: T4, Aurora kinase A (Homo sapiens, UniProt O14965); assay: Inhibition of Aurora A
T4 sequence (O14965 whole entry): T3 sequence (whole entry)

[6] = Cmax in rat at 20 mg/kg, po; type: ADME, organism-based; set-up: dose 20 mg/kg, route oral; conditions: in vivo
[7] = Cmax in rat at 5 mg/kg, iv; type: ADME, organism-based; set-up: dose 5 mg/kg, route intravenous; conditions: in vivo
[8] = Volume of distribution at steady state in rat at 5 mg/kg, iv; type: ADME, organism-based; set-up: dose 5 mg/kg, route intravenous; conditions: in vivo, read-out: Vdss
[9] = Half life in rat at 20 mg/kg, po; type: ADME, organism-based; set-up: dose 20 mg/kg, route oral; conditions: in vivo
[10] = Clearance in rat at 5 mg/kg, iv; type: ADME, organism-based; set-up: dose 5 mg/kg, route intravenous; conditions: in vivo
[11] = Tmax in rat at 20 mg/kg, po; type: ADME, organism-based; set-up: dose 20 mg/kg, route oral; conditions: in vivo
[12] = AUC in rat at 5 mg/kg, iv; type: ADME, organism-based; set-up: dose 5 mg/kg, route intravenous; conditions: plasma
[13] = Half life in rat at 5 mg/kg, iv; type: ADME, organism-based; set-up: dose 5 mg/kg, route intravenous; conditions: in vivo
[14] = AUC in rat at 20 mg/kg, po; type: ADME, organism-based; set-up: dose 20 mg/kg, route oral; conditions: plasma
[15] = Oral bioavailability in rat at 20 mg/kg; type: ADME, organism-based; conditions: in vivo

| Compound | IC50 [2] [nM] | IC50 [4] [nM] | other results |
| --- | --- | --- | --- |
| CC(C)(C)n1c(=O)n(-c2ccccc2)c2nc(Nc3ccccc3)ncc21 | 2400 |  | inhibition [1]: 88%; inhibition [3]: 93% |
| CC(C)n1c(=O)n(-c2ccccc2)c2nc(Nc3ccccc3)ncc21 | 2900 |  | inhibition [3]: 71% |
| COC(=O)COc1ccc(Nc2ncc3nnn(-c4ccccc4)c3n2)cc1 | 477 | 204 |  |
| O=C(O)c1ccc(Nc2ncc(Br)c(Nc3ccccc3)n2)cc1 | 3200 |  | inhibition [1]: 82% |
| O=C(O)c1ccc(Nc2ncc(C3C=NN=N3)c(Nc3ccccc3)n2)cc1 (stereo not drawn) | 1170 | 2850 |  |
| O=c1[nH]c2cnc(Nc3ccccc3)nc2n1-c1ccccc1 |  |  | inhibition [1]: -7%; inhibition [3]: 20% |
| O=[N+]([O-])c1cnc(N[C@H]2CC[C@H](O)CC2)nc1NC12CC3CC(CC(O)(C3)C1)C2 | 198 | 123 | inhibition [5]: 33% |
| O=C(O)c1ccc(Nc2ncc([N+](=O)[O-])c(Nc3ccccc3)n2)cc1 | 150 | 270 | IC50 (Aurora kinase A): 346 nM |
| O=C(O)COc1ccc(Nc2ncc3nnn(C45CC6CC(CC(O)(C6)C4)C5)c3n2)cc1 | 169 | 96 |  |
| COc1nn(-c2ccccc2)c2nc(Nc3ccc(C(=O)O)cc3)ncc12 | 760 | 1900 |  |
| CCn1c(=O)n(-c2ccccc2)c2nc(Nc3ccccc3)ncc21 | > 10000 |  | inhibition [1]: 73%; inhibition [3]: 78% |
| O=C(O)c1ccc(Nc2ncc(F)c(Nc3ccccc3)n2)cc1 | 4170 | 3760 |  |
| COC(=O)COc1ccc(Nc2ncc([N+](=O)[O-])c(Nc3ccccc3)n2)cc1 |  |  | inhibition [3]: 41% |
| OC12CC3CC(C1)CC(n1nnc4cnc(N[C@H]5CC[C@H](O)CC5)nc41)(C3)C2 | 744 | 444 | inhibition [5]: 23% |
| c1ccc(Nc2ncc3nnn(-c4ccccc4)c3n2)cc1 | 628 | 330 |  |
| CCCCOC(=O)c1ccc(Nc2ncc3[nH]c(=O)n(-c4ccccc4)c3n2)cc1 |  |  | inhibition [1]: 6%; inhibition [3]: -5% |
| O=C(O)c1ccc(Nc2ncc3c(Cl)nn(-c4ccccc4)c3n2)cc1 | 180 | 350 |  |
| Cn1c(=O)n(-c2ccccc2)c2nc(Nc3ccccc3)ncc21 | 1700 |  | inhibition [1]: 94%; inhibition [3]: 96% |
| O=[N+]([O-])c1cnc(Nc2ccccc2)nc1Nc1ccccc1 | 2800 |  | inhibition [1]: 52% |
| O[C@H]1CC[C@H](Nc2ncc3nnn(-c4ccccc4)c3n2)CC1 | 279 | 123 | inhibition [5]: 25% |
| Cn1c(=O)c2cnc(Nc3ccc(C(=O)O)cc3)nc2n1-c1ccccc1 | 960 | 1020 |  |
| OC12CC3CC(C1)CC(Nc1nc(N[C@H]4CC[C@H](O)CC4)ncc1F)(C3)C2 |  | 1500 |  |
| O=C(O)c1cccc(Nc2ncc3[nH]c(=O)n(-c4ccccc4)c3n2)c1 |  |  | inhibition [1]: 1%; inhibition [3]: 3% |
| O=C1CN(c2ccccc2)c2nc(Nc3ccc(C(=O)O)cc3)ncc2N1 | 3500 | 6700 |  |
| O=[N+]([O-])c1cnc(N[C@H]2CC[C@H](O)CC2)nc1Nc1ccccc1 | 281 | 172 |  |
| O=C(O)c1ccc(Nc2ncc(-c3ccncc3)c(Nc3ccccc3)n2)cc1 | 540 | 1870 |  |
| OC12CC3CC(C1)CC(Nc1nc(N[C@H]4CC[C@H](O)CC4)ncc1Cl)(C3)C2 | 230 | 133 | inhibition [5]: 65% |
| O=C(O)c1ccc(Nc2ncc(C(F)(F)F)c(Nc3ccccc3)n2)cc1 | 490 | 750 |  |
| O=c1n(-c2ccccc2)c2nc(Nc3ccccc3)ncc2n1C1CCCCC1 |  |  | inhibition [1]: 16%; inhibition [3]: 14% |
| O=C(O)c1ccc(Nc2ncc3[nH]c(=O)n(-c4ccccc4)c3n2)cc1 | 4000 |  | inhibition [1]: 93%; inhibition [3]: 88% |

Further compounds by falling IC50 [2], results first:

| IC50 [2] [nM] | IC50 [4] [nM] | Compound | other results |
| --- | --- | --- | --- |
| 125 | 91 | OC12CC3CC(C1)CC(Nc1nc(N[C@H]4CC[C@H](O)CC4)ncc1Br)(C3)C2 | inhibition [5]: 69% |
| 105 | 38 | O=C(O)CCc1ccc(Nc2ncc([N+](=O)[O-])c(NC34CC5CC(CC(C5)C3)C4)n2)cc1 |  |
| 92 | 74 | O=C(O)COc1ccc(Nc2ncc([N+](=O)[O-])c(Nc3ccccc3)n2)cc1 | IC50 (Aurora kinase A): 85 nM |
| 75 | 80 | O=C(O)c1ccc(Nc2ncc3nnn(C45CC6CC(CC(C6)C4)C5)c3n2)cc1 | IC50 (Aurora kinase A): 910 nM |
| 51 | 66 | O=C(O)c1ccc(Nc2ncc3nnn(C45CC6CC(CC(O)(C6)C4)C5)c3n2)cc1 |  |
| 49 | 32 | O=C(O)c1ccc(Nc2ncc3nnn(-c4ccccc4)c3n2)cc1 | IC50 (Aurora kinase A): 292 nM |
| 41 | 61 | OC12CC3CC(C1)CC(Nc1nc(N[C@H]4CC[C@H](O)CC4)ncc1C(F)(F)F)(C3)C2 | Cmax [6]: 5700 ng/mL; Cmax [7]: 24200 ng/mL; Vd [8]: 0.3 L/kg; half-life [9]: 6.1 h; clearance [10]: 4.2 mL/min/kg; Tmax [11]: 0.5 h; AUC [12]: 20100 ng·h/mL; inhibition [5]: 45%; half-life [13]: 3.7 h; AUC [14]: 27400 ng·h/mL; bioavailability [15]: 34% |
| 26 | 34 | O=C(O)c1ccc(Nc2ncc([N+](=O)[O-])c(NC34CC5CC(CC(C5)C3)C4)n2)cc1 |  |
| 24 | 20 | O=C(O)CCc1ccc(Nc2ncc3nnn(-c4ccccc4)c3n2)cc1 | IC50 (Aurora kinase A): 375 nM |
| 23 | 23 | O=C1OC(Nc2ncc3nnn(-c4ccccc4)c3n2)c2ccccc21 (stereo not drawn) | IC50 (Aurora kinase A): 7300 nM |
| 13 | 9 | O=C(O)COc1ccc(Nc2ncc3nnn(-c4ccccc4)c3n2)cc1 | IC50 (Aurora kinase A): 128 nM |
| 7 | 13 | O=C(O)/C=C\c1ccc(Nc2ncc3nnn(-c4ccccc4)c3n2)cc1 | IC50 (Aurora kinase A): 112 nM |
| 3 | 4.5 | O=C(O)c1ccc(Nc2ncc([N+](=O)[O-])c(NC34CC5CC(CC(O)(C5)C3)C4)n2)cc1 | IC50 (Aurora kinase A): 156 nM |
